Consider 12 compounds from ChEMBL document CHEMBL3351700, “Synthesis, GluN2B affinity and selectivity of benzo[7]annulen-7-amines” (Bioorg Med Chem, 2014).

The species entered for one assay is Cavia porcellus. Kind of assay: Displacement of [3H]-(+)-MK-801 from N-methyl D-aspartate receptor phencyclidine binding site in guinea pig brain cortex membranes at 1 uM after 150 mins by scintillation counting method. The class given is cell membranes. Background: Loss of bound radioactivity is the signal in a displacement assay; it reports binding, not function.

Assay [1] addresses Sigma non-opioid intracellular receptor 1 (Cavia porcellus, UniProt Q60492). The assay can be described thus: Displacement of [3H](+)-pentazocine from sigma1 receptor in guinea pig brain membranes after 180 mins by scintillation counting method. The class given is cell membranes, Membrane.
Assay [2] is described as follows: Displacement of [3H]DTG from sigma2 receptor in rat liver membranes after 180 mins by scintillation counting method. It is filed as cell membranes, Membrane.
The target of assay [3] is Glutamate receptor ionotropic, NMDA 2B (Homo sapiens, UniProt Q05586+Q13224). Kind of assay: Displacement of [3H]ifenprodil from human GluN2B expressed in mouse L(tk-) cells co-expressing GluN1a after 120 mins by scintillation counting method. The class given is cell-based.
Glutamate receptor ionotropic, NMDA 2B, sequence (Q13224 whole entry, one chain of several): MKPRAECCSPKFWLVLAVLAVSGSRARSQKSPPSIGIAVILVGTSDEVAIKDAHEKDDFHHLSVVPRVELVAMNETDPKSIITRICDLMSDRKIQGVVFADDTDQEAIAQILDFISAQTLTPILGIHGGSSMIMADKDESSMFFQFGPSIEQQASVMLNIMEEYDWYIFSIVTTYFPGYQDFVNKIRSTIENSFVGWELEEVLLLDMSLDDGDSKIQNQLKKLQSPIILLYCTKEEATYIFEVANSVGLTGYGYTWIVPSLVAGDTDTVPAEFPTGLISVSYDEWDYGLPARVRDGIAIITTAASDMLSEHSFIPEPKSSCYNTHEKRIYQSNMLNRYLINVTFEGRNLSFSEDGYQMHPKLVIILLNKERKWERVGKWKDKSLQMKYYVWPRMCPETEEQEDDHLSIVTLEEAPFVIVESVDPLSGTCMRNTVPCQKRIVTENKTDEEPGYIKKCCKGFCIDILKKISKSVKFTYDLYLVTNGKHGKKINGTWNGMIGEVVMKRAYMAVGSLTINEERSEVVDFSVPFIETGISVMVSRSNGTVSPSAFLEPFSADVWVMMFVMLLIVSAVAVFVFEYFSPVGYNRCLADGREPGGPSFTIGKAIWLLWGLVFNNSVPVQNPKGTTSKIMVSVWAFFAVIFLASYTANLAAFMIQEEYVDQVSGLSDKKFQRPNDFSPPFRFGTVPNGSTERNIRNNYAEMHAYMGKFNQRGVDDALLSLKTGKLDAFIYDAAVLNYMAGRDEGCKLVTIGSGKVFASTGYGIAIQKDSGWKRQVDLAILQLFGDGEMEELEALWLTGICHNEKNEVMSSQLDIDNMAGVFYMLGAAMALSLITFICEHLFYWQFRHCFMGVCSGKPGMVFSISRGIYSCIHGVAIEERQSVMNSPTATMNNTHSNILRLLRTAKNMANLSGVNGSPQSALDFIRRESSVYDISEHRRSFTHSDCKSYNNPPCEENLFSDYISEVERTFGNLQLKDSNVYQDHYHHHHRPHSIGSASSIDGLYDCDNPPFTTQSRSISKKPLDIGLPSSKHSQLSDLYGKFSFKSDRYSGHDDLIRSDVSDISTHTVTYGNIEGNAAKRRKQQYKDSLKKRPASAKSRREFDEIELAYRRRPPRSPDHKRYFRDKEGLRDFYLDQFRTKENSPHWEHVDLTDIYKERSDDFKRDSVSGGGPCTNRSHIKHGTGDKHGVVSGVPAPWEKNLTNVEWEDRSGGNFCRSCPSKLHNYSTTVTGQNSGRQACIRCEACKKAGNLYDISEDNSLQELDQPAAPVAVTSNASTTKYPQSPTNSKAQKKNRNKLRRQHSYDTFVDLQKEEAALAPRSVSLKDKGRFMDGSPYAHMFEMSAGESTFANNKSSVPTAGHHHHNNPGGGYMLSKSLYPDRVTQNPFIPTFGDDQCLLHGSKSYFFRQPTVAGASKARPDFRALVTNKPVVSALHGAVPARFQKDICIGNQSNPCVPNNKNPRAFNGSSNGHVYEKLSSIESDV

Sigma non-opioid intracellular receptor 1, sequence (Q60492 whole entry): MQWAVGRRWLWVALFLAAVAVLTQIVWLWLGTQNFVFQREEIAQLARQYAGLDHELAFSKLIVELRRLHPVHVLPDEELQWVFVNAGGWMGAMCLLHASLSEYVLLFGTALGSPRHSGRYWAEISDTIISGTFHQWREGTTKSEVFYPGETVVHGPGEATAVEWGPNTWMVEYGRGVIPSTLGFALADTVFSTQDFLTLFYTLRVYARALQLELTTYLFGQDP

For `c1ccc([C@H]2CC[C@H](NC3CCc4ccccc4CC3)CC2)cc1`, the inhibition in the assay filed under Cavia porcellus was 30%. For the same compound, the Ki in assay [1] amounted to 20 nM; in assay [2], 14 nM; in assay [3], 5.7 nM.

In turn, `c1ccc(CCNC2CCc3ccccc3CC2)cc1` returned an inhibition in the assay listed under Cavia porcellus of 0%. For the same compound, the values for the inhibition constant (Ki) in assay [1], in assay [2] and in assay [3] were 22 nM, 198 nM and 20 nM, respectively.

For `COc1ccc2c(c1)CCC(NCCCc1ccccc1)CC2O` (stereo unspecified), the inhibition in the assay listed under Cavia porcellus amounted to 12%. Further, the Ki is 132 nM in assay [1], 9.2 nM in assay [2] and 16 nM in assay [3].

`COc1ccc2c(c1)CCC(NCCCc1ccccc1)CC2` (stereo unspecified): in the assay listed under Cavia porcellus, the inhibition is 0%. In addition, the Ki in assay [1] came to 27 nM; in assay [2], 15 nM; in assay [3] it was 10 nM.

In the case of `c1ccc(CCCCNC2CCc3ccccc3CC2)cc1`, in the assay filed under Cavia porcellus, the inhibition stood at 2%. For the same compound, the inhibition constant Ki was determined as 216 nM in assay [1], 55 nM in assay [2] and 17 nM in assay [3].

For `c1ccc(N2CCN(C3CCc4ccccc4CC3)CC2)cc1`, the inhibition in the assay listed under Cavia porcellus is 5%. In addition, the results for the inhibition constant (Ki) in assay [1], in assay [2] and in assay [3] were 182 nM, 200 nM and 12 nM, respectively.

On to `c1ccc(CNC2CCc3ccccc3CC2)cc1`, for which the inhibition in the assay listed under Cavia porcellus was 16%. Also, the Ki was 107 nM in assay [1], 203 nM in assay [2] and 57 nM in assay [3].

Consider `c1ccc([C@H]2CC[C@@H](NC3CCc4ccccc4CC3)CC2)cc1`, for which, in the assay listed under Cavia porcellus, the inhibition is 43%. In addition, the inhibition constant Ki in assay [1] came out at 14 nM; in assay [2], 3 nM; in assay [3], 2.3 nM.

In the assay listed under Cavia porcellus, `c1ccc(CC2CCN(C3CCc4ccccc4CC3)CC2)cc1` registered an inhibition of 30%. Besides, the Ki in assay [1] is 5.7 nM; in assay [2], 5.4 nM; in assay [3], 2.9 nM.

Regarding `COc1ccc2c(c1)CCN(CCCCc1ccccc1)CC2O` (stereo unspecified), the inhibition in the assay filed under Cavia porcellus came to 22%. Also, in assay [2], the inhibitory constant (Ki) was determined as 554 nM.

`c1ccc(C2CCN(C3CCc4ccccc4CC3)CC2)cc1` returned an inhibition in the assay filed under Cavia porcellus of 11%. Moreover, the inhibitory constant (Ki) in assay [1] is 22 nM; in assay [2], 18 nM; in assay [3] it was 6.9 nM.

In the assay listed under Cavia porcellus, `c1ccc(CCCNC2CCc3ccccc3CC2)cc1` gave an inhibition of 0%. Moreover, the inhibition constant (Ki) in assay [1] turned out to be 150 nM; in assay [2] it was 27 nM; in assay [3], 16 nM.

A word on the inhibition: it is the change of the read-out against control, counted positive when it falls. Low values mean little suppression, high ones strong suppression. The term Ki denotes a dissociation constant, usually derived from enzyme kinetics or from competition with a known ligand. Low values mean higher affinity, high ones lower affinity.
